Experimental data reported in patent publication US6906198B1, “Antipicornaviral compounds, their preparation and use” (Agouron Pharmaceuticals, Inc., priority 1998, dated 2005).
pEC50: −log10 of the molar value. Read-outs that look alike come from different tables or passages of the source.

Experiments:
[1] = Cytotoxicity in mock-infected H1-HeLa cells (antirhinoviral assay, XTT); assay type: cell-based; conditions: human, 50% cytotoxic dose
Description: (§1) H1-HeLa cells were infected with HRV-14 at a multiplicity of infection (m.o.i.) of 0.13 (virus particles/cell) or mock-infected with medium only. Infected or mock-infected cells were resuspended at 8×10^5 cells per mL, and incubated with appropriate concentrations of the compounds to be tested. Two days later, XTT/PMS was added to test plates and the amount of formazan produced was quantified spectrophotometrically at 450/650 nm. The EC50 value was calculated as the concentration of compound that increased the percentage of formazan production in compound-treated, virus-infected cells to 50% of that produced by compound-free, mock-infected cells. The 50% cytotoxic dose (CC50) was calculated as the concentration of compound that decreased the percentage of formazan produced in compound-treated, mock-infected cells to 50% of that produced by compound-free, mock-infected cells. The therapeutic index (TI) was calculated by dividing the CC50 value by the EC50 value.
(§2) All strains of human rhinovirus (HRV) for use in this assay were purchased from American Type Culture Collection (ATCC), except for HRV serotype-14 (produced from the infectious cDNA clone constructed by Dr. Robert Rueckert, Institute for Molecular Virology, University of Wisconsin, Madison, Wis.). HRV stocks were propagated and viral assays were performed in H1-HeLa cells (ATCC). Cells were grown in minimal essential medium with 10% fetal bovine serum, available from Life Technologies (Gaithersburg, Md.).

HRV-14 = experiment: Antirhinoviral H1-HeLa cell culture assay (XTT), HRV-14; assay type: cell-based, human rhinovirus
Description: Antirhinoviral H1-HeLa Cell Culture Assay
In this cell protection assay, the ability of compounds to protect cells against HRV infection was measured by the XTT dye reduction method, which is described in Weislow et al., J. Natl. Cancer Inst. 1989, vol. 81, 577-586.
as §1, §2
The compounds were tested against control compounds WIN 51711, WIN 52084, and WIN 54954 (obtained from Sterling-Winthrop Pharmaceuticals), Pirodavir (obtained from Janssen Pharmaceuticals), and Pleconaril (prepared according to the method described in Diana et al., J. Med. Chem 1995, vol. 38, 1355). Antiviral data obtained for the test compounds are shown in Tables 1 and 3, where all data are for HRV serotype-14 unless otherwise noted in parentheses.

[2] = HRV serotype-14, H1-HeLa cells (Table 1), read-out: Cell Protection EC50
[3] = HRV serotype-14, H1-HeLa cells (Table 3), read-out: EC50

Row | Structure (SMILES) | CC50 at 2 days [1] [µM] | also measured
1 | CCOC(=O)/C=C/[C@H](CN1CCNC1=O)NC(=O)[C@H](Cc1ccccc1)NC(=O)[C@H](CC(C)C)NC(=O)OCc1ccccc1 | – | melting point: 161 to 164 °C
2 | CCOC(=O)/C=C/[C@H](CCC(N)=O)NC(=O)[C@H](Cc1ccccc1)NC(=O)[C@H](CC(C)C)NC(=O)c1cc(C)on1 [(A-1), Ethyl-3-((5′-Methylisoxazole-3′-carbonyl)-L-Leu-L-Phe-L-Gln)-E-Propenoate] | > 100 | melting point: 223 to 225 °C
3 | CCOC(=O)/C=C/[C@H](CCC(N)=O)NC(=O)[C@H](Cc1ccccc1)NC(=O)[C@H](CC(C)C)NC(=O)c1ccno1 [(A-2), Ethyl-3-((Isoxazole-5′-carbonyl)-L-Leu-L-Phe-L-Gin)-E-Propenoate] | > 100 | –
4 | CCOC(=O)/C=C/[C@H](CCC(N)=O)NC(=O)[C@H](Cc1ccc(C)cc1)NC(=O)[C@@H](NC(=O)c1cc(C)on1)C(C)(C)C [(A-3), Ethyl-3-((5′-Methylisoxazole-3′-carbonyl)-L-α-(t-Butyl-Gly)-L-(4-Me-Phe)-L-Gln)-E-Propenoate] | > 10 | –
5 | CCOC(=O)/C=C/[C@H](CCC(N)=O)NC(=O)[C@H](Cc1ccc(F)cc1)NC(=O)[C@@H](NC(=O)c1cc(C)on1)C(C)(C)C [(A-4), Ethyl-3-((5′-Methylisoxazole-3′-carbonyl)-L-α-(t-Butyl-Gly)-L-(4-F-Phe)-L-Gln)-E-Propenoate] | > 100 | –
6 | CCOC(=O)/C=C/[C@H](CCC(N)=O)NC(=O)[C@H](Cc1ccc(F)cc1)NC(=O)[C@@H](NC(=O)c1cc(C)on1)C(C)C [(A-6), Ethyl-3-[(5′-Methylisoxazole-3′-carbonyl)-L-Val-L-(4-F-Phe)-L-Gln]-E-Propenoate] | > 100 | –
7 | CCOC(=O)/C=C/[C@H](CCC(N)=O)NC(=O)[C@H](Cc1ccc(F)cc1)N(C)C(=O)[C@H](Cc1c[nH]cn1)NC(=O)c1cc(C)on1 [(A-9), Ethyl-3-{(5′-Methylisoxazole-3′-carbonyl)-L-His-NCH3-L-(4-F-Phe)-L-Gln}-E-Propenoate] | > 100 | –
8 | CCOC(=O)/C=C/[C@H](CCC(N)=O)NC(=O)[C@H](Cc1ccccc1)N(C)C(=O)[C@H](CC(C)C)NC(=O)c1cc(C)on1 [(A-10), Ethyl-3-((5′-Methylisoxazole-3′-carbonyl)-L-Leu-NCH3-L-Phe-L-Gln}-E-Propenoate] | > 100 | pEC50 (HRV-14; Rhinovirus B, HRV14, HRV serotype-14, H1-HeLa cells (Table 1), read-out: Cell Protection EC50): 6.85; pEC50 (HRV-14; Rhinovirus B, HRV14, HRV serotype-14, H1-HeLa cells (Table 3), read-out: EC50): 6.85
9 | CCOC(=O)/C=C/[C@H](CCC(N)=O)NC(=O)[C@H](Cc1ccc(F)cc1)N(C)C(=O)[C@H](Cc1ccc2ccccc2c1)NC(=O)c1cc(C)on1 [(A-11), Ethyl-3-{(5′-Methylisoxazole-3′-carbonyl)-L-(2-Naphth)-NCH3-L-(4-F-Phe)-L-Gln}-E-Propenoate] | 50 | –
10 | CCOC(=O)/C=C/[C@H](CCC(N)=O)NC(=O)[C@H](Cc1ccc(F)cc1)N(C)C(=O)[C@H](CC(C)C)NC(=O)c1cc(C)on1 [(A-12), Ethyl-3-{(5′-Methylisoxazole-3′-carbonyl)-L-Leu-NCH3-L-(4-F-Phe)-L-Gln}-E-Propenoate] | > 100 | –
11 | CCOC(=O)/C=C/[C@H](CCC(N)=O)NC(=O)[C@H](Cc1ccc(F)cc1)N(C)C(=O)[C@H](Cc1cccc2ccccc12)NC(=O)c1cc(C)on1 [(A-13), Ethyl-3-{(5′-Methylisoxazole-3′-carbonyl)-L-(1-Naphth)-NCH3-L-(4-F-Phe)-L-Gln}-E-Propenoate] | > 10 | –
12 | CCOC(=O)/C=C/[C@H](CCC(N)=O)NC(=O)[C@H](Cc1ccccc1)NC(=O)[C@@H](NC(=O)c1cccs1)C(C)(C)C [(A-14)] | – | pEC50 (HRV-14; [2]): 6.32; pEC50 (HRV-14; [3]): 6.32
13 | CC(C)[C@H](NC(=O)C1SCCS1)C(=O)N[C@@H](Cc1ccc(F)cc1)C(=O)N[C@H](/C=C/C(=O)OCc1cccnc1)CCC(N)=O [(A-18)] | – | pEC50 (HRV-14; [2]): 5.82; pEC50 (HRV-14; [3]): 5.82
14 | CCOC(=O)/C=C/[C@H](CCC(N)=O)NC(=O)[C@H](Cc1ccccc1)NC(=O)[C@H](CC(C)C)NC(=O)[C@@H]1C=CCN1 [(A-19)] | – | pEC50 (HRV-14; [2]): 4.60; pEC50 (HRV-14; [3]): 4.60
15 | CCOC(=O)/C=C/[C@H](CCC(N)=O)NC(=O)[C@H](Cc1ccccc1)NC(=O)[C@H](CC(C)C)NC(=O)c1cc(C)oc1C [(A-20)] | – | pEC50 (HRV-14; [2]): 4.90; pEC50 (HRV-14; [3]): 4.90
16 | CCOC(=O)/C=C/[C@H](CCC(N)=O)NC(=O)[C@H](Cc1ccccc1)NC(=O)[C@H](CC(C)C)NC(=O)c1nc(C)c[nH]1 [(A-21)] | – | pEC50 (HRV-14; [2]): 5.60; pEC50 (HRV-14; [3]): 5.60
17 | CCOC(=O)/C=C/[C@H](C[C@@H]1CCNC1=O)NC(=O)[C@H](Cc1ccccc1)NC(=O)[C@H](CC(C)C)NC(=O)OCc1ccccc1 [(A-24), Ethyl-3-{Cbz-L-Leu-L-Phe-L-((S)-Pyrrol-Ala)}-E-Propenoate] | > 100 | –
18 | CCOC(=O)/C=C/[C@H](C[C@@H]1CCNC1=O)NC(=O)[C@H](Cc1ccccc1)NC(=O)[C@@H](NC(=O)OCc1ccccc1)C(C)C [(A-25), Ethyl-3-{Cbz-L-Val-L-Phe-L-((S)-Pyrrol-Ala)}-E-Propenoate] | > 100 | –
19 | CCOC(=O)/C=C/[C@H](C[C@@H]1CCCNC1=O)NC(=O)[C@H](Cc1ccccc1)NC(=O)[C@H](CC(C)C)NC(=O)OCc1ccccc1 [(A-26), Ethyl-3-{Cbz-L-Leu-L-Phe-L-((S)-Piper-Ala)}-E-Propenoate] | > 100 | –
20 | CCOC(=O)/C=C/[C@H](C[C@H]1CCNC1=O)NC(=O)[C@H](Cc1ccccc1)NC(=O)[C@H](CC(C)C)NC(=O)OCc1ccccc1 [(A-27), Ethyl-3-{Cbz-L-Leu-L-Phe-L-((R)-Pyrrol-Ala)}-E-Propenoate] | > 100 | –
21 | CCOC(=O)/C=C/[C@H](CCC(N)=O)NC(=O)[C@@H](CC(=O)[C@@H](NC(=O)c1cc(C)on1)C(C)C)Cc1ccc(F)cc1 [(B-1), Ethyl-3-{(5′-Methylisoxazole-3′-carbonyl)-L-ValΨ(COCH2)-L-(4-F-Phe)-L-Gln}-E-Propenoate] | > 100 | melting point: 220 °C (dec.)
22 | Cc1cc(C(=O)N[C@H](C(=O)C[C@@H](Cc2ccc(F)cc2)C(=O)N[C@H](/C=C2\CCOC2=O)C[C@@H]2CCNC2=O)C(C)C)no1 [(B-3), 2-{(5′-Methylisoxazole-3′-carbonyl)-L-ValΨ(COCH2)-L-(4-F-Phe)-L-((S)-Pyrrol-Ala)}-E-(α-Vinyl-γ-Butyrolactone)] | > 100 | –
23 | CCOC(=O)/C=C/[C@H](C[C@@H]1CCCNC1=O)NC(=O)[C@@H](CC(=O)[C@@H](NC(=O)c1cc(C)on1)C(C)C)Cc1ccc(F)cc1 [(B-4), Ethyl-3-{(5′-Methylisoxazole-3′-carbonyl)-L-ValΨ(COCH2)-L-(4-F-Phe)-L-((S)-Piper-Ala)}-E-Propenoate] | > 100 | –
24 | CCOC(=O)/C=C/[C@H](CCC(N)=O)NC(=O)[C@H](Cc1ccc(F)cc1)OC(=O)[C@@H](NC(=O)c1cc(C)on1)C(C)C [(C-1), Ethyl-3-{(5′-Methylisoxazole-3′-carbonyl)-L-Val-O-L-(4-F-Phe)-L-Gln}-E-Propenoate] | > 10 | –
25 | CCOC(=O)/C=C/[C@H](C[C@@H]1CCNC1=O)NC(=O)[C@H](Cc1ccc(F)cc1)OC(=O)[C@@H](NC(=O)c1cc(C)on1)C(C)C [(C-2), Ethyl-3-{(5′-Methylisoxazole-3′-carbonyl)-L-Val-O-L-(4-F-Phe)-L-((S)-Pyrrol-Ala)}-E-Propenoate] | > 10 | –
26 | CC(C)C[C@H](NC(=O)OCc1ccccc1)C(=O)N[C@@H](Cc1ccccc1)C(=O)N[C@H](/C=C/c1ccno1)CCC(N)=O [Comparison Compound #1, 5-(3′-(Cbz-L-Leu-L-Phe-L-Gln)-E-Propene)-Isoxazole, reference compound] | > 320 | –
27 | CCOC(=O)/C=C/[C@H](CCC(N)=O)NC(=O)[C@H](Cc1ccccc1)NC(=O)[C@H](CC(C)C)NC(=O)OCc1ccccc1 [Comparison Compound #2, Ethyl-3-(Cbz-L-Leu-L-Phe-L-Gln)-E-Propenoate] | > 320 | melting point: 219 to 221 °C
